Experimental data published in PubChem BioAssay (NCI).
Where “and” joins values, the source holds several entries; their conditions need not be identical. Identical values can stand only once.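 Where inhibition never reached the appropriate level, the endpoint shown equals the highest concentration tested. Otherwise, values were interpolated linearly from a five-concentration, 48-hour dose response in 96-well plates. GI50 is the concentration that inhibits growth by half. TGI is the concentration that stops growth completely.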

Columns and labels:
Test in all cases: inhibition of tumour cell growth, NCI panel, 48 h
SR leukemia = system: SR leukemia
TK-10 renal = system: TK-10 renal
OVCAR-4 ovarian = system: OVCAR-4 ovarian
RXF 393 renal = system: RXF 393 renal
SK-OV-3 ovarian = system: SK-OV-3 ovarian
HL-60(TB) leukemia = system: HL-60(TB) leukemia
NCI-H460 lung = system: NCI-H460 lung
M14 melanoma = system: M14 melanoma
SK-MEL-28 melanoma = system: SK-MEL-28 melanoma
NCI-H23 lung = system: NCI-H23 lung

Compound	GI50 (SR leukemia)	TGI (SR leukemia)	GI50 (TK-10 renal)	TGI (TK-10 renal)	GI50 (OVCAR-4 ovarian)	TGI (OVCAR-4 ovarian)	GI50 (RXF 393 renal)	TGI (RXF 393 renal)	GI50 (SK-OV-3 ovarian)	TGI (SK-OV-3 ovarian)	GI50 (HL-60(TB) leukemia)	TGI (HL-60(TB) leukemia)	GI50 (NCI-H460 lung)	TGI (NCI-H460 lung)	GI50 (M14 melanoma)	TGI (M14 melanoma)	GI50 (SK-MEL-28 melanoma)	TGI (SK-MEL-28 melanoma)	GI50 (NCI-H23 lung)	TGI (NCI-H23 lung)
Cn1c([N+](=O)[O-])cnc1/C=C1\Oc2cc(Cl)ccc2C1=O	0.0393 µM	0.344 µM	1.33 µM	4.81 µM	2.48 µM	> 21.5 µM	0.762 µM	2.37 µM	1.94 µM	> 22.8 µM	0.421 µM	5.04 µM	0.297 µM	3.4 µM	0.499 µM	4.61 µM	0.721 µM	3.82 µM	0.766 µM	4.47 µM
O=C(/C=C/c1ccccc1)CC(c1ccccc1)N1CCOCC1 (stereo unspecified)	2.71 µM	8.92 µM	8.63 µM	24.5 µM	9.68 µM	23.3 µM	1.61 µM	3.03 µM	14.4 µM	30.7 µM	3.68 µM	18.1 µM	15.5 µM	33.2 µM	1.79 µM	3.41 µM	13.8 µM	30 µM	2 µM	4.4 µM
COc1ccc(/C=C2/CCc3cc4ccc(OC)cc4[o+]c32)c(O)c1	3.04 µM	45.6 µM	11.7 µM	24.6 µM	5.45 µM	20.6 µM	7.08 µM	24.6 µM	12.3 µM	25.3 µM	4.96 µM	61.4 µM	2.8 µM	9.74 µM	3.1 µM	14.6 µM	2.3 µM	5.62 µM	10.4 µM	30.1 µM
Cc1ncc(C(=O)Nc2ccc(CN3CCN(C)CC3)c(C(F)(F)F)c2)cc1C#Cc1cnc(NC2CC2)c2ncccc12	0.493 µM	1.27 µM	0.78 µM	1.31 µM	1.49 µM	3.27 µM	0.606 µM	1.1 µM	3.39 µM	7.66 µM	0.67 µM	1.47 µM	0.623 µM	1.19 µM	0.56 µM	1.11 µM	0.641 µM	1.18 µM	0.646 µM	1.36 µM
CCN(CC)CCNC(=O)c1c(C)[nH]c(/C=C2\C(=O)Nc3ccc(F)cc32)c1C	1.97 µM and 4.56 µM and 1.27 µM	5.11 µM and 14.2 µM and 3.74 µM	2.78 µM and 2.01 µM and 5.52 µM	> 10 µM and 5.81 µM and 20.9 µM	> 10 µM and 2.41 µM and 2.76 µM	> 10 µM and 9.23 µM and 15 µM	1.19 µM and 1.45 µM and 1.38 µM	8.47 µM and 4.56 µM and 4.37 µM	2.44 µM and 2.26 µM and 3.51 µM	> 10 µM and 5.43 µM and 19.6 µM	0.353 µM and 2.42 µM and 0.847 µM	4.34 µM and 6.34 µM and 4.13 µM	2 µM and 2.19 µM	> 10 µM and 5.78 µM and 13.1 µM	0.574 µM and 1.03 µM and 0.687 µM	2.33 µM and 3.56 µM and 2.23 µM	2.47 µM and 3 µM and 1.57 µM	> 10 µM and 5.89 µM and 3.31 µM	3.88 µM and 2.6 µM and 2.39 µM	> 10 µM and 9.21 µM and 14.5 µM
O=S1(=O)NCCCN1CCNc1nccc(-c2c(-c3cccc(O)c3)nc3sccn23)n1	5.55 µM	59.3 µM	33.6 µM	> 100 µM	17.5 µM	> 96.1 µM	5.17 µM	38.4 µM	5.93 µM	63.8 µM	23 µM	60 µM	21.5 µM	> 100 µM	0.366 µM	15.5 µM	0.245 µM	> 100 µM	29 µM	> 100 µM
C=C1CC2(OC1=O)C(=O)N(CCCN1C(=O)C3(CC(=C)C(=O)O3)c3ccccc31)c1ccccc12 (stereo unspecified)	0.33 µM	1.35 µM	1.54 µM	2.98 µM	1.52 µM	3.14 µM	1.32 µM	2.83 µM	11.4 µM	23.7 µM	0.831 µM	2.85 µM	3.94 µM	18.5 µM	1.68 µM	3.67 µM	1.92 µM	3.61 µM	2.34 µM	6.14 µM
CCCCCCCCCCCC[n+]1ccccc1 (tested in a mixture with another compound)	0.156 µM	3.11 µM	0.427 µM	1.86 µM	0.683 µM	12.4 µM	0.682 µM	4.44 µM	1.16 µM	3.74 µM	0.253 µM	1.04 µM	1.33 µM	3.9 µM	1.1 µM	–	1.35 µM	3.53 µM	0.655 µM	5.48 µM
CCCCCCCCCCN=C(c1ccc(N(C)C)cc1)c1ccc(N(C)C)cc1	0.211 µM	> 46.8 µM	3.81 µM	49.7 µM	3.29 µM	> 83.6 µM	1.66 µM	9.87 µM	1.44 µM	40.3 µM	0.954 µM	18.9 µM	0.437 µM	24.5 µM	0.328 µM	26.4 µM	7.39 µM	> 100 µM	1.58 µM	> 75.4 µM
Cc1cc(Nc2nc(SCc3ccc(C(=O)Nc4ccc(F)cc4N)cc3)nn3cccc23)n[nH]1	0.068 µM	63.1 µM	1.21 µM	7.33 µM	1.66 µM	77.7 µM	0.301 µM	13 µM	0.339 µM	4.61 µM	0.268 µM	0.785 µM	0.395 µM	> 100 µM	0.289 µM	15.7 µM	2.83 µM	51.8 µM	0.603 µM	47.4 µM
CCCCCCCCCCCCCCCCCCNC(=O)[C@H]1CSC(c2cccs2)N1 (stereo partly specified)	0.94 µM	2.62 µM	1.79 µM	> 50 µM	1.56 µM	> 50 µM	0.973 µM	1.72 µM	4.51 µM	18.3 µM	0.919 µM	2.06 µM	0.754 µM	1.69 µM	0.868 µM	1.66 µM	0.725 µM	1.43 µM	1.8 µM	17.7 µM
CCC(=C(c1ccc(OCCCN(C)C)cc1)c1ccc(OCCCN(C)C)cc1)c1ccc(Cl)cc1	0.288 µM	0.716 µM	3.26 µM	6.01 µM	0.922 µM	2.41 µM	0.977 µM	3.4 µM	2.81 µM	5.36 µM	0.372 µM	0.941 µM	0.457 µM	1.23 µM	0.302 µM	0.577 µM	0.324 µM	0.652 µM	2.5 µM	4.98 µM
COc1ccccc1/C=C/C(=O)/C=C/c1ccccc1O	0.39 µM	> 100 µM	2.72 µM	5.74 µM	1.17 µM	8.83 µM	–	0.763 µM	2.05 µM	5.6 µM	0.323 µM	–	1.67 µM	4.39 µM	1.46 µM	3.17 µM	1.56 µM	3.72 µM	1.5 µM	4.1 µM
NC(=O)/C=C/C(=O)O	–	> 5000 µM	–	> 5000 µM	–	> 5000 µM	–	> 5000 µM	–	> 5000 µM	–	> 5000 µM	–	> 5000 µM	–	> 5000 µM	–	> 5000 µM	–	> 5000 µM
COC(=O)/C(C#N)=C1\CCC(C(=O)OC)N1C (stereo unspecified)	–	> 100 µM	–	> 100 µM	–	> 100 µM	–	> 100 µM	–	> 100 µM	–	> 100 µM	–	> 100 µM	–	> 100 µM	–	> 100 µM	–	> 100 µM
CC(=O)OCC1OC(n2cc([N+](=O)[O-])c(=O)[nH]c2=O)C(OC(C)=O)C(OC(C)=O)C1OC(C)=O (stereo unspecified)	–	> 100 µM	–	> 100 µM	–	> 100 µM	–	> 100 µM	–	> 100 µM	–	> 100 µM	–	> 100 µM	–	> 100 µM	–	> 100 µM	–	> 100 µM
Cc1nc(Nc2n[nH]c3c2CN(C(=O)N[C@H](CN(C)C)c2ccccc2)C3(C)C)c2sccc2n1	0.00432 µM and < 0.01 µM	–	0.0982 µM and 0.491 µM	3.92 µM and 6.08 µM	0.615 µM and 1.39 µM	> 6.95 µM and 8.37 µM	0.143 µM and 0.751 µM	1.89 µM and 2.53 µM	0.317 µM and 0.205 µM	> 5.94 µM and 14.7 µM	0.0189 µM and 0.0564 µM	2.03 µM and 3.43 µM	0.0132 µM and 0.0223 µM	> 4.07 µM and 10.7 µM	0.0586 µM and 0.103 µM	> 3.22 µM and 8.37 µM	0.013 µM and < 0.01 µM	1.12 µM and 4.31 µM	0.0136 µM and 0.0207 µM	2.8 µM and 4.42 µM
Cc1nnc(N/N=C(/C(=O)C(C#N)c2ccccc2)C(C#N)c2ccccc2)n1N (stereo unspecified)	–	> 100 µM	–	> 100 µM	–	> 54.9 µM	–	24.1 µM	–	> 100 µM	–	57.8 µM	–	12.6 µM	–	31.2 µM	–	36.1 µM	–	17.8 µM
